Activity calls are given as the source filed them. No cut-off for these calls is given here.
Key:
[1] = test system: PC-12; assay: Cytotoxicity in rat PC-12 cells assessed as cell viability measured at 10 to 30 uM for 24 hrs by MTT assay; type: functional, cell-based; settings: dose 10-30 µM
[2] = test system: PC-12; assay: Cytotoxicity in rat PC-12 cells assessed as cell viability measured at 30 uM for 24 hrs by MTT assay; type: functional, cell-based
[3] = test system: PC-12; assay: Neuroprotective activity against 6-OHDA-induced cytotoxicity in rat PC-12 cells at 0.1 to 30 uM for 4 hrs followed by exposure to 6-OHDA measured after 24 hrs by MTT assay relative to control; type: functional; settings: dose 0.1-30 µM, time 28 hrs
[4] = test system: PC-12; assay: Cytotoxicity in rat PC-12 cells assessed as cell viability incubated at 0.1 to 30 uM for 24 hrs by MTT assay relative to control; type: functional; settings: dose 0.1-30 µM
[5] = test system: PC-12; assay: Neuroprotective activity against 6-OHDA-induced cytotoxicity in rat PC-12 cells for 4 hrs followed by exposure to 6-OHDA measured after 24 hrs by MTT assay; type: functional, cell-based; settings: dose 0.1-30 µM, time 28.0 hrs
[6] = test system: PC-12; assay: Neuroprotective activity against 6-OHDA-induced cytotoxicity in rat PC-12 cells at 10 to 30 uM for 4 hrs followed by exposure to 6-OHDA measured after 24 hrs by MTT assay; type: functional, cell-based; settings: dose 10-30 µM, time 28.0 hrs
[7] = test system: PC-12; assay: Neuroprotective activity against 6-OHDA-induced cytotoxicity in rat PC-12 cells at 30 uM for 4 hrs followed by exposure to 6-OHDA measured after 24 hrs by MTT assay; type: functional, cell-based; settings: time 28.0 hrs
[8] = test system: PC-12; assay: Antiinflammatory activity in rotenone induced cytotoxicity in rat PC-12 cells assessed as reduction of ROS production pretreated at 10 to 30 uM for 4 hrs followed by rotenone addition treated for 6 hrs measured after 1 hr of H2-DCFDA addition by measuring fluorescence; type: functional, cell-based; settings: dose 10-30 µM, time 11.0 hrs
[9] = Neurotoxicity in rotenone induced at rat PC-12 cells assessed as cell viability pretreated with compound for 4 hrs followed by rotenone addition measured after 24 hrs by MTT assay; type: toxicity, cell-based
[10] = Neurotoxicity in rotenone induced at rat PC-12 cells assessed as cell viability at 30 uM pretreated for 4 hrs followed by rotenone addition measured after 24 hrs by MTT assay (reference value: 53.4 +/- 2.6%); type: toxicity, cell-based; settings: time 28 hrs, read-out: Activity
[11] = test system: PC-12; assay: Reversal of upregulation of HO-1 in rat PC-12 cells pretreated with U0126 for 2 hrs followed by compound addition at 10 uM for 2 to 3 hrs by Western blotting analysis; type: functional, cell-based; settings: time 2-3 hrs
[12] = target: KEAP1/NRF2 (Rattus norvegicus) (UniProt O54968+P57790); assay: Inhibition of Nrf2-Keap1 protein-protein interaction in rat PC-12 cells by Western blotting analysis; type: cell-based
[13] = target: T1, Nuclear factor erythroid 2-related factor 2 (Rattus norvegicus) (UniProt O54968); assay: Induction of Nrf2 nuclear translocation in rat PC12 cells at 10 uM for 3 hrs by Western blotting analysis; type: cell-based; settings: PC-12, filed as activator
T1 sequence (whole entry): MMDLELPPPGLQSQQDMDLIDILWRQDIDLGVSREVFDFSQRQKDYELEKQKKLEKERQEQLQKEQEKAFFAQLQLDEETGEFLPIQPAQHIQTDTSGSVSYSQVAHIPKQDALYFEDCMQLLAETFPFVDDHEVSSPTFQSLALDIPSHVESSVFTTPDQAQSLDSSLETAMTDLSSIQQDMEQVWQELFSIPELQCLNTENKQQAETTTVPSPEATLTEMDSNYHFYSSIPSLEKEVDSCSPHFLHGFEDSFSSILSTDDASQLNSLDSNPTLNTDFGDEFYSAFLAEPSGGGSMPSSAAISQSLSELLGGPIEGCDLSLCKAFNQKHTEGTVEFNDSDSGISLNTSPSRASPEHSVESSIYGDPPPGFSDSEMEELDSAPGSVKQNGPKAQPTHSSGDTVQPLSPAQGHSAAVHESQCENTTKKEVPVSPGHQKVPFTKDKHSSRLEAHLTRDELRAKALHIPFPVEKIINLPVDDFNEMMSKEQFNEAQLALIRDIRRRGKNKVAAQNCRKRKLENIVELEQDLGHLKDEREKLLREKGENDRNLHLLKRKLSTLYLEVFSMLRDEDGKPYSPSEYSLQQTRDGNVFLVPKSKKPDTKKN

[14] = target: T1, Nuclear factor erythroid 2-related factor 2 (Rattus norvegicus); assay: Induction of Nrf2 nuclear translocation in rat PC12 cells assessed as increase in phosphorylation of Akt pretreated with LY294002 for 2 hrs followed by compound addition at 10 uM for 2 to 3 hrs by Western blotting analysis; type: cell-based; settings: PC-12, time 2-3 hrs
[15] = test system: PC-12; assay: Cytotoxicity in rat PC-12 cells assessed as cell viability incubated for 24 hrs by MTT assay; type: functional, cell-based; settings: PC-12, 24 h
[16] = test system: Brain; assay: Antioxidant activity in Fe2+/L-ascorbic acid induced Sprague-Dawley rat brain homogenate assessed as inhibition of lipid peroxide production measured at 100 uM after 60 mins by microplate reader method relative to control; type: functional, tissue-based
[17] = target: T1, Nuclear factor erythroid 2-related factor 2 (Rattus norvegicus); assay: Induction of Nrf2 nuclear translocation in rat PC12 cells assessed as increase in phosphorylation of AKT at 10 uM for 2 to 3 hrs by Western blotting analysis; type: cell-based; settings: PC-12, filed as activator, time 2-3 hrs
[18] = target: T1, Nuclear factor erythroid 2-related factor 2 (Rattus norvegicus); assay: Induction of Nrf2 nuclear translocation in rat PC12 cells assessed as increase in phosphorylation of ERK2 at 10 uM for 2 to 3 hrs by Western blotting analysis; type: cell-based; settings: PC-12, filed as activator, time 2-3 hrs
[19] = target: T1, Nuclear factor erythroid 2-related factor 2 (Rattus norvegicus); assay: Induction of Nrf2 nuclear translocation in rat PC12 cells assessed as increase in phosphorylation of ERK1 at 10 uM for 2 to 3 hrs by Western blotting analysis; type: cell-based; settings: PC-12, filed as activator, time 2-3 hrs
[20] = target: T1, Nuclear factor erythroid 2-related factor 2 (Rattus norvegicus); assay: Inhibition of Nrf2 nuclear translocation in rat PC12 cells assessed as increase in phosphorylation of p38 MAPK pretreated with SB203580 for 2 hrs followed by compound addition at 10 uM for 2 to 3 hrs by Western blotting analysis; type: cell-based; settings: PC-12, time 2-3 hrs
[21] = target: T1, Nuclear factor erythroid 2-related factor 2 (Rattus norvegicus); assay: Induction of Nrf2 nuclear translocation in rat PC12 cells assessed as increase in phosphorylation of ERK2 pretreated with U0126 for 2 hrs followed by compound addition at 10 uM for 2 to 3 hrs by Western blotting analysis; type: cell-based; settings: PC-12, time 2-3 hrs
[22] = test system: PC-12; assay: Reversal of upregulation of HO-1 in rat PC-12 cells pretreated with SP600125 for 2 hrs followed by compound addition at 10 uM for 2 to 3 hrs by Western blotting analysis; type: functional, cell-based; settings: time 2-3 hrs
[23] = test system: PC-12; assay: Neuroprotective activity in rat PC-12 cells assessed as upregulation of HO-1 expression measured for 6 hrs by immunoblotting analysis; type: functional, cell-based; settings: dose 1-30 µM
[24] = target: T1, Nuclear factor erythroid 2-related factor 2 (Rattus norvegicus); assay: Induction of Nrf2 nuclear translocation in rat PC12 cells assessed as increase in phosphorylation of JNK pretreated with SP600125 for 2 hrs followed by compound addition at 10 uM for 2 to 3 hrs by Western blotting analysis; type: cell-based; settings: PC-12, time 2-3 hrs
[25] = target: T1, Nuclear factor erythroid 2-related factor 2 (Rattus norvegicus); assay: Induction of Nrf2 nuclear translocation in rat PC12 cells assessed as change in phosphorylation of p38 MAPK level at 10 uM for 2 to 3 hrs by Western blotting analysis; type: cell-based; settings: PC-12, time 2-3 hrs
[26] = test system: PC-12; assay: Neuroprotective activity in rat PC-12 cells assessed as fold increase in upregulation of HO-1 expression measured at 30 uM for 6 hrs by immunoblotting analysis; type: functional
[27] = test system: PC-12; assay: Cytotoxicity in 6-OHDA induced rat PC-12 cells assessed as cell viability pretreated with ZnPP for 30 mins followed by compound addition at 10 uM for 4 hrs and measured after 24 hrs of […] addition by MTT assay; type: functional, cell-based; settings: time 28.0 hrs
[28] = test system: PC-12; assay: Upregulation of HO-1 expression in si-RNA mediated Nrf2 knock down rat PC-12 cells measured by immunoblotting analysis; type: functional, cell-based
[29] = test system: PC-12; assay: Antiinflammatory activity in 6-OHDA-induced cytotoxicity in rat PC-12 cells assessed as reduction of fluorescence signal pretreated at 10 to 30 uM for 4 hrs followed by 6-OHDA addition treated for 6 hrs measured after 1 hr of H2-DCFDA addition by spectrophotometric analysis; type: functional, cell-based; settings: dose 10-30 µM, time 11.0 hrs
[30] = test system: PC-12; assay: Antiinflammatory activity in rotenone induced cytotoxicity in rat PC-12 cells assessed as reduction of fluorescence signal pretreated at 10 to 30 uM for 4 hrs followed by rotenone addition treated for 6 hrs measured after 1 hr of H2-DCFDA addition by spectrophotometric analysis; type: functional, cell-based; settings: dose 10-30 µM, time 11.0 hrs
[31] = test system: PC-12; assay: Antiinflammatory activity in 6-OHDA-induced cytotoxicity in rat PC-12 cells assessed as reduction of ROS production pretreated at 10 to 30 uM for 4 hrs followed by 6-OHDA addition treated for 6 hrs measured after 1 hr of H2-DCFDA addition by measuring fluorescence; type: functional, cell-based; settings: dose 10-30 µM, time 11.0 hrs
[32] = target: T1, Nuclear factor erythroid 2-related factor 2 (Rattus norvegicus); assay: Induction of Nrf2 nuclear translocation in rat PC12 cells assessed as increase in phosphorylation of JNK at 10 uM for 2 to 3 hrs by Western blotting analysis; type: cell-based; settings: PC-12, filed as activator, time 2-3 hrs
[33] = target: T1, Nuclear factor erythroid 2-related factor 2 (Rattus norvegicus); assay: Induction of Nrf2 nuclear translocation in rat PC12 cells assessed as increase in phosphorylation of ERK1 pretreated with U0126 for 2 hrs followed by compound addition at 10 uM for 2 to 3 hrs by Western blotting analysis; type: cell-based; settings: PC-12, time 2-3 hrs
[34] = test system: PC-12; assay: Neuroprotective activity in rat PC-12 cells assessed as upregulation of HO-1 expression measured at 10 uM after 3 to 6 hrs by immunoblotting analysis; type: functional, cell-based; settings: time 3-6 hrs
[35] = test system: PC-12; assay: Reversal of upregulation of HO-1 in rat PC-12 cells pretreated with LY294002 for 2 hrs followed by compound addition at 10 uM for 2 to 3 hrs by Western blotting analysis; type: functional, cell-based; settings: time 2-3 hrs

CC1(C)Oc2c(c(O)cc3occ(-c4cccc(OC(F)(F)F)c4)c(=O)c23)CC1O (stereo not drawn)
Activity [1]: Active

CC1(C)Oc2c(c(O)cc3occ(-c4ccncc4)c(=O)c23)CC1O (stereo not drawn)
Activity [2]: Active

CC1(C)Oc2c(c(O)cc3occ(-c4cccc(C#N)c4)c(=O)c23)CC1O (stereo not drawn)
Activity [1]: Active

CCOc1ccc(-c2coc3cc4c(c(OCC)c3c2=O)C=CC(C)(C)O4)cc1
Activity [2]: Active

CC1(C)Oc2c(c(O)cc3occ(-c4ccccc4)c(=O)c23)CC1O (stereo not drawn)
inhibition (INH) [3]: 49.9% | Activity [4]: 75% | Activity [5]: Dose-Dependent Effect | Activity [1]: inactive | Activity [6]: Active | Activity [7]: Active

COc1ccc(-c2coc3cc(O)c4c(c3c2=O)OC(C)(C)CC4)cc1
Activity [1]: Active

CC1(C)Oc2c(c(O)cc3occ(-c4ccc(F)cc4F)c(=O)c23)CC1O (stereo not drawn)
Activity [8]: Active | IC50 [9]: 4.7 µM | viability at 30 µM [10]: ≤ 79.9% | Activity [11]: Active | inhibition [12]: Active | Activity [13]: Active | Activity [14]: inactive | IC50 [15]: 4.2 µM | inhibition [16]: 50.5% | Activity [17]: Active | Activity [18]: Active | Activity [19]: Active | inhibition [20]: Active | Activity [21]: inactive | Activity [22]: Active | Activity [23]: Dose-Dependent Effect | Activity [24]: inactive | Activity [25]: inactive | fold change (FC) [26]: 1.5 | Activity [27]: Active | Activity [28]: inactive | Activity [5]: Dose-Dependent Effect | Activity [29]: Active | Activity [30]: Active | Activity [1]: Active | Activity [31]: Active | Activity [32]: Active | Activity [33]: inactive | Activity [6]: Active | Activity [34]: Active | Activity [35]: Active

CC(C)Oc1ccc(-c2coc3cc4c(c(OC(C)C)c3c2=O)C=CC(C)(C)O4)cc1
Activity [2]: Active

Cc1cc(-c2coc3cc(O)c4c(c3c2=O)OC(C)(C)C(O)C4)ccc1F (stereo not drawn)
Activity [1]: Active | Activity [6]: inactive

C#CCN[C@@H]1CCc2ccccc21
Activity [1]: Active | Activity [6]: Active

COc1ccc(-c2coc3cc(O)c4c(c3c2=O)OC(C)(C)C=C4)cc1
Activity [8]: Active | IC50 [9]: 4.8 µM | viability at 30 µM [10]: ≤ 81.8% | Activity [11]: Active | inhibition [12]: Active | Activity [13]: Active | Activity [14]: inactive | IC50 [15]: 3.9 µM | inhibition [16]: 28.8% | Activity [17]: Active | Activity [18]: Active | Activity [2]: inactive | Activity [19]: Active | inhibition [20]: Active | Activity [21]: inactive | Activity [22]: Active | Activity [23]: Dose-Dependent Effect | Activity [24]: inactive | Activity [25]: inactive | fold change (FC) [26]: 2 | Activity [27]: Active | Activity [28]: inactive | Activity [5]: Dose-Dependent Effect | Activity [29]: Active | Activity [30]: Active | Activity [31]: Active | Activity [32]: Active | Activity [33]: inactive | Activity [7]: Active | Activity [34]: Active | Activity [35]: Active

Source: ChEMBL document CHEMBL5352401, “Novel cudraisoflavone J derivatives as potent neuroprotective agents for the treatment of Parkinson's disease via the activation of Nrf2/HO-1 signaling” (Eur J Med Chem, 2022)
